From BindingDB's records for doi:10.1021/jm500308c (University Jena, 2014)

Columns and labels:
[1] = target: Signal transducer and activator of transcription 3 (Homo sapiens, UniProt P40763); test: Inhibition of STAT3 transcriptional activity in human HaCaT cells after 6 hrs by luciferase reporter gene assay
[2] = target: T1, Nuclear factor erythroid 2-related factor 2 (Homo sapiens, UniProt Q16236); test: Activation of Nrf2 transcriptional activity in human LNCaP cells after 6 hrs by luciferase reporter gene assay relative to tert-butylhydroquinone
T1 sequence (Q16236 whole entry): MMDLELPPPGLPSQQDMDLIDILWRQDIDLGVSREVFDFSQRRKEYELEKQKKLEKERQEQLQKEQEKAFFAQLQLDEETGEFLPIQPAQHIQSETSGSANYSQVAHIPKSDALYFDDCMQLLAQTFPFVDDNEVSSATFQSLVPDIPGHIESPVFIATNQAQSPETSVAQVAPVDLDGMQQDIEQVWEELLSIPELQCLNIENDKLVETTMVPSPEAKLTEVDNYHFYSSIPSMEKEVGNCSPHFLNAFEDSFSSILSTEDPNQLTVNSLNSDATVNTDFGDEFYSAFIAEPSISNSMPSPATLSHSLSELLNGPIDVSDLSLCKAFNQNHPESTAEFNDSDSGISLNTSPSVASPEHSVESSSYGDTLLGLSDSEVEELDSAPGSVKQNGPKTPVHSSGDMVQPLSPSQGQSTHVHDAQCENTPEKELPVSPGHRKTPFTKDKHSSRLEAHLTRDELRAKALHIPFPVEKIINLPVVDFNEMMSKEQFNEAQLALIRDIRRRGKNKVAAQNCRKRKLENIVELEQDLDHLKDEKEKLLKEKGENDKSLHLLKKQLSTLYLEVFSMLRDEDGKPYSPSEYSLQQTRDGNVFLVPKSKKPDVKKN

Chain of Signal transducer and activator of transcription 3 (P40763 whole entry): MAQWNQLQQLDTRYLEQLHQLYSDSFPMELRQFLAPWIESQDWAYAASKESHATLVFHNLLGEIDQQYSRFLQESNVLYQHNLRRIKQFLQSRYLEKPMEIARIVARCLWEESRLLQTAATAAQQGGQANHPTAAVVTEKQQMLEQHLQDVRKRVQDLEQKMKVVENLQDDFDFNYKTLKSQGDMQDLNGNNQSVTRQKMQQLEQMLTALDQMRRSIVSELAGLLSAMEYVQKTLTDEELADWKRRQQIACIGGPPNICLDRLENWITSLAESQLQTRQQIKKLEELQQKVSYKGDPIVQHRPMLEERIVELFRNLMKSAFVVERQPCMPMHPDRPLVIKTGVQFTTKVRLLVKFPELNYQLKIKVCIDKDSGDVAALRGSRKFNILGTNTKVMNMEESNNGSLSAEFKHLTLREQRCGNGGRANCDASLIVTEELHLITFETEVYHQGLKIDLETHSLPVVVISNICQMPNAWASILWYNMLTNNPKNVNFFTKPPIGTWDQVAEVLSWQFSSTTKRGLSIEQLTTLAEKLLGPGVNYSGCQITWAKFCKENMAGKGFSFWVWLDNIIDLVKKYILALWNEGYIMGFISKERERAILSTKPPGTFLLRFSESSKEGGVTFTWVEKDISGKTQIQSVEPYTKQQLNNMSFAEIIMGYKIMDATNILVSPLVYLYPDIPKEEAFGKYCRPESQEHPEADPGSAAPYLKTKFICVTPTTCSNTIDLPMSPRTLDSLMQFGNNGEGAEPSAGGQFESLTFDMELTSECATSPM

SMILES: COc1cc(CCC(=O)CC(=O)CCc2cc(CCC(C)C)c(O)c(OC)c2)cc(CCC(C)C)c1O
- IC50 [1]: > 50 µM

SMILES: COc1cc(/C=C/C(=O)/C=C/c2cc(CC=C(C)C)c(O)c(OC)c2)cc(CC=C(C)C)c1O
- IC50 [1]: 22.4 µM

SMILES: COc1cc(/C=C/C(=O)CC(=O)c2ccc(O)c(OC)c2)ccc1O
- IC50 [1]: 35.7 µM

SMILES: COc1cc(/C=C/c2cc(-c3ccc(O)c(OC)c3)[nH]n2)ccc1O
- IC50 [1]: 18.2 µM

SMILES: COc1cc(/C=C/C(=O)/C=C/c2cc(F)c(O)c(OC)c2)cc(F)c1O
- IC50 [1]: 19.4 µM
- EC50 [2]: 3.1 µM

SMILES: COc1cc(/C=C/C(=O)CC(=O)/C=C/c2cc(F)c(O)c(OC)c2)cc(F)c1O
- IC50 [1]: 15.6 µM
- EC50 [2]: 8.6 µM

SMILES: COc1cc(/C=C/c2cc(/C=C/c3cc(CC=C(C)C)c(O)c(OC)c3)[nH]n2)cc(CC=C(C)C)c1O
- IC50 [1]: > 50 µM

SMILES: COc1cc(/C=C/C(=O)CC(=O)/C=C/c2cc(CC=C(C)C)c(O)c(OC)c2)cc(CC=C(C)C)c1O
- IC50 [1]: > 50 µM

SMILES: COc1cc(C=CC(=O)CC(=O)C=Cc2ccc(O)c(OC)c2)ccc1O
- EC50 [2]: 9.9 µM

SMILES: COc1cc(CCC(=O)CC(=O)CCc2ccc(O)c(OC)c2)ccc1O [1,7-Bis-(4-hydroxy-3-methoxy-phenyl)-heptane-3,5-dione]
- IC50 [1]: > 50 µM

SMILES: COc1cc(/C=C/c2cc(/C=C/c3ccc(O)c(OC)c3)[nH]n2)ccc1O [4-(2-(5-(4-hydroxy-3-methoxystyryl)-1H-pyrazol-3-yl)vinyl)-2-methoxyphenol]
- IC50 [1]: 16.2 µM

SMILES: COc1cc(/C=C/C(=O)/C=C/c2ccc(O)c(OC)c2)ccc1O [(1E,4E)-1,5-Bis-(4-hydroxy-3-methoxy-phenyl)-penta-1,4-dien-3-one]
- IC50 [1]: 6 µM
- EC50 [2]: 0.9 µM
